# Laboratory results published in patent publication US20250197377A1, “NOVEL PHARMACEUTICAL SALTS AND POLYMORPHIC FORMS OF AN ERBB AND BTK INHIBITOR” (DIZAL (JIANGSU) PHARMACEUTICAL CO., LTD., priority 2021, published 2025).
# Experiments:
# [1] = Form A and Form B inter-conversion study (competitive slurry, XRPD); format: physicochemical
# Description: Competitive slurry experiments were conducted to evaluate the relative stability of Form A and Form B. Inter-conversion study was performed at room temperature and 50° C. using single and binary solvents listed in the Table 1 below. About 80 mg (100 mg for 50° C.) of Form A and Form B (1:1, w/w) was weighed into sample vials (8 mL) and then 3 mL (2 mL for 50° C.) of solvents were added to each vial. The obtained suspensions were kept stirring for 7 days at room temperature and 50° C., then filtered at specified time. The wet and dried solids were analyzed by XRPD (dried in vacuum oven at 45° C.).
# Form B was dominant in tested solvent systems with water activity below 0.15 at room temperature (24˜27° C.). […] Pure Form A and Form B were stable during drying process (50° C., vacuum) for at least 2 days.
# [2] = Solubility in bio-relevant media; format: physicochemical; conditions: for solubility at 24 h: salts; for pH value: solubility sample of salt
smiles,measurement,setting,value
"C=CC(=O)Nc1cc(Nc2nccc(Nc3cc(Cl)c(F)cc3C(C)(C)O)n2)c(OC)cc1N1CC[C@@H](N(C)C)C1 [Form A and Form B (1:1, w/w), (R)-N-(5-((4-((5-chloro-4-fluoro-2-(2-hydroxypropan-2-yl)phenyl)amino)pyrimidin-2-yl)amino)-2-(3-(dimethylamino)pyrrolidin-1-yl)-4-methoxyphenyl)acrylamide]",XRPD results of slurry,"[1]; 1% water/acetone, 24~27° C., 1 d, after dry",A + B
same,XRPD results of slurry,"[1]; 1% water/acetone, 24~27° C., 1 d, before dry",A + B
same,XRPD results of slurry,"[1]; 1% water/acetone, 24~27° C., 3 d, after dry",A + B
same,XRPD results of slurry,"[1]; 1% water/acetone, 24~27° C., 3 d, before dry",A + B
same,XRPD results of slurry,"[1]; 1% water/acetone, 24~27° C., 7 d, before dry",A + B(increased)
same,XRPD results of slurry,"[1]; 30% water/acetone, 24~27° C., 1 d, after dry",A + B
same,XRPD results of slurry,"[1]; 30% water/acetone, 24~27° C., 1 d, before dry",A + B
same,XRPD results of slurry,"[1]; 30% water/acetone, 24~27° C., 7 d, before dry",A + B
same,XRPD results of slurry,"[1]; 30% water/acetone, 50° C., 1 d, after dry",A + B
same,XRPD results of slurry,"[1]; 30% water/acetone, 50° C., 1 d, before dry",A + B
same,XRPD results of slurry,"[1]; Acetone (no water), 50° C., 1 d, before dry",A (minor) + B
same,XRPD results of slurry,"[1]; Acetone(no water), 24~27° C., 1 d, after dry",A + B
same,XRPD results of slurry,"[1]; Acetone(no water), 24~27° C., 1 d, before dry",A + B
same,XRPD results of slurry,"[1]; Acetone(no water), 24~27° C., 3 d, after dry",A + B
same,XRPD results of slurry,"[1]; Acetone(no water), 24~27° C., 3 d, before dry",A + B
same,XRPD results of slurry,"[1]; Acetone(no water), 24~27° C., 7 d, before dry",A + B(increased)
same,XRPD results of slurry,"[1]; EtOH/IPA (1/1), 24~27° C., 1 d, after dry",A + B
same,XRPD results of slurry,"[1]; EtOH/IPA (1/1), 24~27° C., 1 d, before dry",A + B
same,XRPD results of slurry,"[1]; EtOH/IPA (1/1), 24~27° C., 7 d, before dry",A + B(increased)
same,XRPD results of slurry,"[1]; EtOH/IPA (7/2), 24~27° C., 1 d, after dry",A + B
same,XRPD results of slurry,"[1]; EtOH/IPA (7/2), 24~27° C., 1 d, before dry",A + B
same,XRPD results of slurry,"[1]; EtOH/IPA (7/2), 24~27° C., 7 d, before dry",A + B(increased)
same,XRPD results of slurry,"[1]; EtOH/water (1/1), 24~27° C., 1 d, after dry",A + B
same,XRPD results of slurry,"[1]; EtOH/water (1/1), 24~27° C., 1 d, before dry",A + B
same,XRPD results of slurry,"[1]; EtOH/water (1/1), 24~27° C., 7 d, before dry",A + B
same,XRPD results of slurry,"[1]; Water, 24~27° C., 1 d, after dry",A + B
same,XRPD results of slurry,"[1]; Water, 24~27° C., 1 d, before dry",A + B
same,XRPD results of slurry,"[1]; Water, 24~27° C., 3 d, after dry",A + B
same,XRPD results of slurry,"[1]; Water, 24~27° C., 3 d, before dry",A + B
same,XRPD results of slurry,"[1]; Water, 24~27° C., 7 d, before dry",A + B
same,XRPD results of slurry,"[1]; Water, 50° C., 1 d, after dry",A + B
same,XRPD results of slurry,"[1]; Water, 50° C., 1 d, before dry",A + B
same,XRPD results of slurry,"[1]; Water, 50° C., 3 d, after dry",A + B
same,XRPD results of slurry,"[1]; Water, 50° C., 3 d, before dry",A + B
same,XRPD results of slurry,"[1]; Water, 50° C., 7 d, before dry",A + B
"C=CC(=O)Nc1cc(Nc2nccc(Nc3cc(Cl)c(F)cc3C(C)(C)O)n2)c(OC)cc1N1CC[C@@H](N(C)C)C1.O=C(O)/C=C/C(=O)O [Fumaric acid salt, (R)—N-(5-((4-((5-chloro-4-fluoro-2-(2-hydroxypropan-2-yl)phenyl)amino)pyrimidin-2-yl)amino)-2-(3-(dimethylamino)pyrrolidin-1-yl)-4-methoxyphenyl)acrylamide fumarate]",solubility at 24 h,[2]; FaSSIF,> 10.1 mg/mL
same,pH value,[2]; FaSSIF,5.22
same,solubility at 24 h,[2]; FeSSIF,> 9.75 mg/mL
same,pH value,[2]; FeSSIF,4.94
same,solubility at 24 h,"[2]; SGF, simulated gastric fluid",> 12.2 mg/mL
same,pH value,[2]; SGF,3.98
"C=CC(=O)Nc1cc(Nc2nccc(Nc3cc(Cl)c(F)cc3C(C)(C)O)n2)c(OC)cc1N1CC[C@@H](N(C)C)C1.Cl [Hydrochloric acid salt, (R)—N-(5-((4-((5-chloro-4-fluoro-2-(2-hydroxypropan-2-yl)phenyl)amino)pyrimidin-2-yl)amino)-2-(3-(dimethylamino)pyrrolidin-1-yl)-4-methoxyphenyl)acrylamide Hydrochloride]",solubility at 24 h,[2]; FaSSIF,1.95 mg/mL
same,pH value,[2]; FaSSIF,6.62
same,solubility at 24 h,[2]; FeSSIF,> 11.1 mg/mL
same,pH value,[2]; FeSSIF,5.44
same,solubility at 24 h,"[2]; SGF, simulated gastric fluid",11.8 mg/mL
same,pH value,[2]; SGF,5.65
